Measurements published in US20240208898A1, “ENAMINE N-OXIDES: SYNTHESIS AND APPLICATION TO HYPOXIA-RESPONSIVE PRODRUGS AND IMAGING AGENTS” (DANA-FARBER CANCER INSTITUTE, INC., priority 2021, published 2024).

Columns and labels:
Assay type in all cases: cell-based
BxPC-3 cells = test: Western blot of pimonidazole-labeled cells; conditions: 48 h, 10 μM, printed 'until after 1% pO2'
Method: Cells were seeded at a density of 200,000 cells per well in media [2 mL, RPMI supplemented with 5% heat-inactivated human serum (Sigma), penicillin (100 units/mL), and streptomycin (0.1 mg/mL)] in 6-well plates. Cells were incubated at 37° C. under ambient atmosphere with 5% CO2. After 24 hours, the media was aspirated and replaced with media [1 mL, RPMI supplemented with 5% heat-inactivated HS, penicillin (100 units/mL), and streptomycin (0.1 mg/mL)] containing pimonidazole (1 μL, 10 mM in water; 10 μM final concentration). Plates were then incubated at 37° C. under ambient (20% pO2) or oxygenated conditions (5%, 1%, or 0.1% pO2) with 5% CO2 for 48 hours. The oxygenated conditions were maintained using a hypoxia chamber (ProOx C21, Biospherix) in a cell culture incubator. After 48 hours, the media was aspirated, and the cells were washed with PBS (1 mL). PBS (1 mL) was then added to each well and the cells were scraped off with a cell scraper. […] The protein concentration was then determined by BCA assay following the manufacturer's protocol (Pierce). […] The dried pellet was then resuspended in an SDS solution (50 μL, 1% SDS in 50 mM Tris, pH 8.0), and the protein concentration was determined by BCA assay. […] Blots were imaged using a fluorescence scanner (Odyssey CLx, LI-COR Biosciences) and quantified by ImageJ.

A431 or H460 cells = test: Staurosporine enamine N-oxide cell viability studies (MTT); conditions: compared with AQ4N
Method: A431 or H460 cells were seeded at a density of 12,000-13,000 cells per well in media [100 μL, RPMI supplemented with 5% heat-inactivated human serum (Sigma), penicillin (100 units/mL), and streptomycin (0.1 mg/mL)] in clear 96-well plates. PBS (100 μL) was added to the edge wells. The cells were incubated at 37° C. under ambient atmosphere with 5% CO2. After 24 hours, the media was aspirated and replaced with media [50 μL, RPMI supplemented with 5% HS, penicillin (100 units/mL), and streptomycin (0.1 mg/mL)] containing the staurosporine derivative of interest. For A431 cells, staurosporine or staurosporine derivative treatment concentrations started at 50 μM and were serially diluted 4-fold across nine wells. For H460 cells, staurosporine or staurosporine derivative treatment concentrations started at 100 μM and were serially diluted 4-fold across nine wells. […] After 48 hours, the media was aspirated, the wells were washed once with PBS (130 μL), and the cell viability was determined using the MTT assay. […] The absorbance at 570 nm was measured using a microplate reader (Clariostar Plus, BMG Labtech).
These studies were performed as previously reported (Manley et al., J. Pharmacol. Exp. Ther. 344:368-377 (2013)). […] After 72 hours, cell viability was determined using the MTT assay. […] The absorbance at 570 nm was then measured using a microplate reader (Clariostar Plus, BMG Labtech).

A431 cells = test: Staurosporine release by A431 cells; conditions: 7.5×10^6 A431 cells, 100 μM compound, serum free RPMI, HPLC
Method: Sterilized 2 mL HPLC vials were each charged with a suspension of 7.5×10^6 cells in RPMI (1 mL) and sealed with a cap containing a septum. The vials were charged with only RPMI (1 mL) in the no cell controls. A stock solution of staurosporine enamine N-oxide 37 (10 μL, 10 mM in ethanol; 100 μM final concentration) was then added to each vial. Septa were pierced with an open 22-gauge needle for normoxic conditions. Hypoxic conditions were maintained using nitrogen lines connected to a vacuum gas manifold. The vials were maintained at 37° C. in a water bath and shaken every 15 minutes. At different time points (0, 1, 2, 4, and 8 hours), an aliquot of the cell suspension (100 μL) was removed from each vial and immediately added to acetonitrile (100 μL) containing p-nitrophenol (10 μM) as an internal standard. Quenched samples were then cooled to −20° C. for 1 hour and centrifuged at 10,000×g for 5 minutes at 4° C. The supernatant was collected and analyzed by HPLC (C18 column, 4.6×250 mm, 5 μm particle size, 1 mL/minute flow rate, eluent: gradient 0→20% MeCN/H2O+0.1% TFA (1 minute), gradient 20→40% MeCN/H2O+0.1% TFA (7 minutes), gradient 40→100% MeCN/H2O+0.1% TFA (3 minutes)). Staurosporine was quantified using its absorbance at 280 nm.

| Compound | oxygen tension at which apparent half maximal labeling capacity (0.1% pO2) is reached (BxPC-3 cells) [% pO2] | hypoxic to normoxic cytotoxicity ratios (HCR) (A431 or H460 cells) | rate of conversion to staurosporine under hypoxic conditions relative to normoxic (A431 cells) [fold] |
| --- | --- | --- | --- |
| O=[N+]([O-])c1nccn1CC(O)CN1CCCCC1 (stereo not drawn) [Pimonidazole] | < 1 | – | – |
| CC[N+]([O-])(/C=C/COC(=O)N1Cc2c(c3c4ccccc4n4c3c3c2c2ccccc2n3[C@@]2(C)O[C@@H]4C[C@@H](NC)[C@H]2OC)C1=O)CC [compound 37, N,N-diethyl enamine N-oxide staurosporine] | – | compare favorably with and are complementary to those of AQ4N | ~4 |
